The text below walks through data of ChEMBL document CHEMBL5321267, “Phomactinine, the First Nitrogen-Bearing Phomactin, Produced by Biatriospora sp. CBMAI 1333” (J Nat Prod, 2023).

The structures appear in SMILES notation. Activity calls are given as the source filed them. No cut-off for these calls is given here.

This experiment deals with Platelet-activating factor receptor (Homo sapiens) (UniProt P25105). Kind of experiment: Antagonist activity at PAFR in human KB cells assessed as inhibition of cPAF induced IL-8 release at 10 to 25 uM preincubated for 24 hrs followed by cPAF stimulation and measured after 6 hrs by ELISA method. Type of experiment: functional, cell-based. To be noted: filed as antagonist, dose 10-25 µM, time 30.0 hrs.
Chain of Platelet-activating factor receptor (Homo sapiens) (P25105 whole entry): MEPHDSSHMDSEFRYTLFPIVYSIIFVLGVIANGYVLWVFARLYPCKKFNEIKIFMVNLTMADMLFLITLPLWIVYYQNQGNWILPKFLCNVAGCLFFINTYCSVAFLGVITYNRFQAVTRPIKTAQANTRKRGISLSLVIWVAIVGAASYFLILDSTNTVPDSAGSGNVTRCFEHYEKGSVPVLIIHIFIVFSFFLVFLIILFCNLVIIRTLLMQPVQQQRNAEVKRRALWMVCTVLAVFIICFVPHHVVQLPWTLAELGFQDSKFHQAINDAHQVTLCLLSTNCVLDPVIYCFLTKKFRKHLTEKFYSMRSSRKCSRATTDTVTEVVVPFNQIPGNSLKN

Turning to `C/C1=C\CC[C@@]2(C)O[C@@H]2[C@@]23C(=O)NC=C2[C@@](C)(CC1)[C@H](C)C[C@@H]3O`, the inhibition result is “Active”.
